Where two headings read alike, the source gives them in different places.
What was measured:
Type in all cases: biochemical
CHK1 = target: T1, CHK1 (Homo sapiens, UniProt O14757); test: Kinase profiling CHK1; details: for remaining activity at 100 µM: read-out: residual kinase activity, CHK1
T1 sequence (O14757 1-476): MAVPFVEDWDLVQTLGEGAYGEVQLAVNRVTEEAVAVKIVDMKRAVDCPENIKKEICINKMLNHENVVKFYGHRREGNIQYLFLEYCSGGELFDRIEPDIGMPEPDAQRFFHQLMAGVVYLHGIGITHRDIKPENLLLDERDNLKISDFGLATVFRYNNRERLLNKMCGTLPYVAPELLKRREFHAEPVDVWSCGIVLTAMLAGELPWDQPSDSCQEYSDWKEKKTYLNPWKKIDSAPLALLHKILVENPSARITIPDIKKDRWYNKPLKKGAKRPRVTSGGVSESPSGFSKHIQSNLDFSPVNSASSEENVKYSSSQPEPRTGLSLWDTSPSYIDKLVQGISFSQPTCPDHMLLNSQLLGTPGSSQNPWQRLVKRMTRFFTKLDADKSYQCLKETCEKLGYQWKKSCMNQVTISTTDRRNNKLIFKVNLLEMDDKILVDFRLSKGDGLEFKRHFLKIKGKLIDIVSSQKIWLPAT
Text: (§1) Any value less that 25 is considered to be highly significant inhibition.

Aurora A = target: T2, Aurora A (Homo sapiens, UniProt O14965); test: Kinase profiling Aurora A; details: for remaining activity at 100 µM: read-out: residual kinase activity, Aurora A
T2 sequence (O14965 1-403): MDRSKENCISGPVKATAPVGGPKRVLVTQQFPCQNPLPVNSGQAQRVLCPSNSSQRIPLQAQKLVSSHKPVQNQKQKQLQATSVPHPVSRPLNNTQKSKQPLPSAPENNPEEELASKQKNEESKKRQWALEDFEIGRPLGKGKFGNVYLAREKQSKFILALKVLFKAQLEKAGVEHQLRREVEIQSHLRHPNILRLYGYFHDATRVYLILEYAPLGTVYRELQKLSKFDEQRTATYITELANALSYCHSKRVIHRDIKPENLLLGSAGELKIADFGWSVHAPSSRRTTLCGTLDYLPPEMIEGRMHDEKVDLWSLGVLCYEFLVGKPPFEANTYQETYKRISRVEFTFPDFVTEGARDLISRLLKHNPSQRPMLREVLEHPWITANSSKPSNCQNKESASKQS
Text: as §1

TSSK1 = target: T3, TSSK1 (Homo sapiens, UniProt Q9BXA7); test: Kinase profiling TSSK1; details: for remaining activity at 100 µM: read-out: residual kinase activity, TSSK1
T3 sequence (Q9BXA7 1-367): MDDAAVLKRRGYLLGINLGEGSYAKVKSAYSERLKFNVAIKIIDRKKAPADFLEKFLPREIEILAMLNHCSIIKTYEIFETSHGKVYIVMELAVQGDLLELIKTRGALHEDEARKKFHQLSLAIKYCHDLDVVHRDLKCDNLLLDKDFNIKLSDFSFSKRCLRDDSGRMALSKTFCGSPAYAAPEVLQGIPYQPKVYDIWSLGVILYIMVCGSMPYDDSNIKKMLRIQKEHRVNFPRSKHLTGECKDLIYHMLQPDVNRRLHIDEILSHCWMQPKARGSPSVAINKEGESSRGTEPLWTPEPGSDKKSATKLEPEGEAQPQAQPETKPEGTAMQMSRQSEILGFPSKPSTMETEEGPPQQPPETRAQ
Text: as §1

MARK1 = MARK1 (Homo sapiens, UniProt Q9P0L2); test: Kinase profiling MARK1; details: for remaining activity at 100 µM: read-out: residual kinase activity, MARK1
MARK1, sequence (Q9P0L2 whole entry, species assumed): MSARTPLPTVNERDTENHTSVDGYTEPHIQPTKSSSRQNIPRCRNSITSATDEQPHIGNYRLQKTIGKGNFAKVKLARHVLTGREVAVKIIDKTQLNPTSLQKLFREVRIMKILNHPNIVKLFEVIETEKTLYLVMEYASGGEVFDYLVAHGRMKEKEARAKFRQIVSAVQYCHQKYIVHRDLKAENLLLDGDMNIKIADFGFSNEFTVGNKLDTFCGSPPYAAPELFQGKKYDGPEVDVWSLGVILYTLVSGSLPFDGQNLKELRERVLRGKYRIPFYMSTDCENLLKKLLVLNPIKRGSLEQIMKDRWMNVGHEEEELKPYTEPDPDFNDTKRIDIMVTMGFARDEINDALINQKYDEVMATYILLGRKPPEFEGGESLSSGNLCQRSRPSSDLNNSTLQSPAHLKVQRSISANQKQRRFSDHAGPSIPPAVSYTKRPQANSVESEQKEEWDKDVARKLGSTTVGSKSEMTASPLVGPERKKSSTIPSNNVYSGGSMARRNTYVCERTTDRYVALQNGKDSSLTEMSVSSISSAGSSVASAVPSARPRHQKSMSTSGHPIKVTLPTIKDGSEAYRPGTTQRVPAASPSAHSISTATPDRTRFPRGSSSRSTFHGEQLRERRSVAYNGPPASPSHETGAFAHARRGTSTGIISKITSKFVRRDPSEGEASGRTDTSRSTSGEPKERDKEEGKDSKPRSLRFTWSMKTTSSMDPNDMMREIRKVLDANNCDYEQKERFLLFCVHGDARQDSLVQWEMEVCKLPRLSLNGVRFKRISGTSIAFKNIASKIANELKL
Text: as §1

WNK1 = WNK1 (Homo sapiens, UniProt Q9H4A3); test: Kinase profiling WNK1; details: for remaining activity at 100 µM: read-out: residual kinase activity, WNK1
WNK1, sequence (Q9H4A3 whole entry, species assumed): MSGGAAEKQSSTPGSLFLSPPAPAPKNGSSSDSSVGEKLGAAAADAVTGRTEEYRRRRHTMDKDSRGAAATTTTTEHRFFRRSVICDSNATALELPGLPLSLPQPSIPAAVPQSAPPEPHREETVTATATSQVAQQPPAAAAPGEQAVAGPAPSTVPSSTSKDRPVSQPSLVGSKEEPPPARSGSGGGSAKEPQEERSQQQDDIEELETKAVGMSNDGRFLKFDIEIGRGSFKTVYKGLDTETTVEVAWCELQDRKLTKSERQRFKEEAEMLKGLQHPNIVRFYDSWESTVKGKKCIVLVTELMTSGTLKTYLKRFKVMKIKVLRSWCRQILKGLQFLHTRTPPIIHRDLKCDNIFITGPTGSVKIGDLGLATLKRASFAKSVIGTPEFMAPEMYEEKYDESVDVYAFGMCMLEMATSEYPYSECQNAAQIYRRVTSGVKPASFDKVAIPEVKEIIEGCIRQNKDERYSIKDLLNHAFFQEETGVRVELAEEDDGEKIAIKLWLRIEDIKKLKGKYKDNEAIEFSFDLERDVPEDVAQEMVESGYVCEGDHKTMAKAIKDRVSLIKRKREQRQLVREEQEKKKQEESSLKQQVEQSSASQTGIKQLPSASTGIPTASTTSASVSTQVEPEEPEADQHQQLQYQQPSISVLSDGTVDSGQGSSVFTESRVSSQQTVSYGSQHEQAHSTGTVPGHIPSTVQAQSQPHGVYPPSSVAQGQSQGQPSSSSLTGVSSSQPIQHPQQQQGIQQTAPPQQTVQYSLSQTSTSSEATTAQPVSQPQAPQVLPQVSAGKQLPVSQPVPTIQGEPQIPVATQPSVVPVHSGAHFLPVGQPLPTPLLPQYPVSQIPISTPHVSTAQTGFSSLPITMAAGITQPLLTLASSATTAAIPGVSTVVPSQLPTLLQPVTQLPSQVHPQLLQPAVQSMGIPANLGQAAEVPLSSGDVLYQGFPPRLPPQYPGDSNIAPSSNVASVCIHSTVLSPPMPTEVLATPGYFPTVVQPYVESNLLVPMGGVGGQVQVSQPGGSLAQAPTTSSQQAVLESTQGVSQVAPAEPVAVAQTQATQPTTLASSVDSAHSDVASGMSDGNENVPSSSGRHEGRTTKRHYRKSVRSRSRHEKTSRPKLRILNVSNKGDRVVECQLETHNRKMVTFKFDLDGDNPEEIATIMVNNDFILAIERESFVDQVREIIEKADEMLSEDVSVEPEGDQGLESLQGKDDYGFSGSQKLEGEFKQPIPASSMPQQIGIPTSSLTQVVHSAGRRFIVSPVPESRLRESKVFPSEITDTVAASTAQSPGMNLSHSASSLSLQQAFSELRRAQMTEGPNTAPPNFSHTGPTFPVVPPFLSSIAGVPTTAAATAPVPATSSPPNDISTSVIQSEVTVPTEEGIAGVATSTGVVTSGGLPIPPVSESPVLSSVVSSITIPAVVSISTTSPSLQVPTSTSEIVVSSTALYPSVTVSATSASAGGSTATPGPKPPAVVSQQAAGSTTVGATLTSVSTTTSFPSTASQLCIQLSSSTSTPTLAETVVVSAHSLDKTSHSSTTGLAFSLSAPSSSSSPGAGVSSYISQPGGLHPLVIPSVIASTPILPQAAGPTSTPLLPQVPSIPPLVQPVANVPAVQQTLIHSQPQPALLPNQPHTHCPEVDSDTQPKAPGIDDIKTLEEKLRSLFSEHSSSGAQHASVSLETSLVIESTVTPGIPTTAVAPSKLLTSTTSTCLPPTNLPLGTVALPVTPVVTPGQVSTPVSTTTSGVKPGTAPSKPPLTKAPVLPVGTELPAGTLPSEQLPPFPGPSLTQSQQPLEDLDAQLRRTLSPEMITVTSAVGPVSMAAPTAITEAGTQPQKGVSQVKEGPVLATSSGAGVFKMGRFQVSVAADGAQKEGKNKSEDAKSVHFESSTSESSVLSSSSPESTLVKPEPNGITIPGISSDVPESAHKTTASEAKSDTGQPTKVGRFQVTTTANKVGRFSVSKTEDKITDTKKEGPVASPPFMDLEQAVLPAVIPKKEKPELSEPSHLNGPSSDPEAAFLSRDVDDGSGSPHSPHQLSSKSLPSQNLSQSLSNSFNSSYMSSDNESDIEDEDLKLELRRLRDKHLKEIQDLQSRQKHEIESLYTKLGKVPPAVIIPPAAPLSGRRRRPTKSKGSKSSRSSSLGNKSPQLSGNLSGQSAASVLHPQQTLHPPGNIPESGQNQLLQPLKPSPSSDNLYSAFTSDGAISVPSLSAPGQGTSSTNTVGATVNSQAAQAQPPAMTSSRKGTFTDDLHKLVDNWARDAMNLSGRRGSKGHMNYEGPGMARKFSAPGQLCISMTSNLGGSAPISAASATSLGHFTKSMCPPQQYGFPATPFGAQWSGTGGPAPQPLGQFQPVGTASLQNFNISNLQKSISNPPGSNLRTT
Text: as §1

ABL = ABL (Homo sapiens, UniProt P00519); test: Kinase profiling ABL; details: for remaining activity at 100 µM: read-out: residual kinase activity, ABL
ABL, sequence (P00519 whole entry, species assumed): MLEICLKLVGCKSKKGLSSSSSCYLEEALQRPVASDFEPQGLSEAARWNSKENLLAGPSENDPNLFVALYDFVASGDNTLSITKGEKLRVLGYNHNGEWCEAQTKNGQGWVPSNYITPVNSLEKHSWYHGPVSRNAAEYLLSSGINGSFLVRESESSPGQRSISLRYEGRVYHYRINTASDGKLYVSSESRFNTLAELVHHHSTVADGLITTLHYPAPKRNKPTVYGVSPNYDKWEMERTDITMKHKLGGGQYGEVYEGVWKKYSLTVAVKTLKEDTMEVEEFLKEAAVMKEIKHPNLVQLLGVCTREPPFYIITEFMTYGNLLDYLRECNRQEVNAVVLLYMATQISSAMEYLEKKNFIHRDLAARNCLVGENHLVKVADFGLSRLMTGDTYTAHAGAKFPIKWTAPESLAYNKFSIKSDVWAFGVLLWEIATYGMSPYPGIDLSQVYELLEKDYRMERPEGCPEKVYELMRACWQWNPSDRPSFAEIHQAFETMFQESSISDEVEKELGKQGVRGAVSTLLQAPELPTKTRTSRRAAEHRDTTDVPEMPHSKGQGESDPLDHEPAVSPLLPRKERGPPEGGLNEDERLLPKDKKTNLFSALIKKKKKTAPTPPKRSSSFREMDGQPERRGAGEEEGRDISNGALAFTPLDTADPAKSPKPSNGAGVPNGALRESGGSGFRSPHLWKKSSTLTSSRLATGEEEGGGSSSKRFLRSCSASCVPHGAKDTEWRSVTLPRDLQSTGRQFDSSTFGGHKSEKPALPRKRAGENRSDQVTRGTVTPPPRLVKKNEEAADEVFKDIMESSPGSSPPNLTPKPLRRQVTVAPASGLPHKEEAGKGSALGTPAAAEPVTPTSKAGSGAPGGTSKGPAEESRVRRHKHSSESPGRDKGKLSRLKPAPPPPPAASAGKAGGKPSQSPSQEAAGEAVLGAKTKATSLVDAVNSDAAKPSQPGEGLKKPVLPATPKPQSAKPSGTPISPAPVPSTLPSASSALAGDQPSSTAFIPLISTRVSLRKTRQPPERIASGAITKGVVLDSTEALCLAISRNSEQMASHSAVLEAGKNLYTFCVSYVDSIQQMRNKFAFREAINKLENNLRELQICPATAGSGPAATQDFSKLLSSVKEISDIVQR
Text: as §1

CDK2-Cyclin A = CDK2-Cyclin A (Homo sapiens, UniProt P24941); test: Kinase profiling CDK2-Cyclin A; details: for remaining activity at 100 µM: read-out: residual kinase activity, CDK2-Cyclin A
Text: as §1

EIF2AK3 = target: T4, EIF2AK3 (Homo sapiens, UniProt Q9NZJ5); test: Kinase profiling EIF2AK3; details: for remaining activity at 100 µM: read-out: residual kinase activity, EIF2AK3
T4 sequence (Q9NZJ5 30-1116): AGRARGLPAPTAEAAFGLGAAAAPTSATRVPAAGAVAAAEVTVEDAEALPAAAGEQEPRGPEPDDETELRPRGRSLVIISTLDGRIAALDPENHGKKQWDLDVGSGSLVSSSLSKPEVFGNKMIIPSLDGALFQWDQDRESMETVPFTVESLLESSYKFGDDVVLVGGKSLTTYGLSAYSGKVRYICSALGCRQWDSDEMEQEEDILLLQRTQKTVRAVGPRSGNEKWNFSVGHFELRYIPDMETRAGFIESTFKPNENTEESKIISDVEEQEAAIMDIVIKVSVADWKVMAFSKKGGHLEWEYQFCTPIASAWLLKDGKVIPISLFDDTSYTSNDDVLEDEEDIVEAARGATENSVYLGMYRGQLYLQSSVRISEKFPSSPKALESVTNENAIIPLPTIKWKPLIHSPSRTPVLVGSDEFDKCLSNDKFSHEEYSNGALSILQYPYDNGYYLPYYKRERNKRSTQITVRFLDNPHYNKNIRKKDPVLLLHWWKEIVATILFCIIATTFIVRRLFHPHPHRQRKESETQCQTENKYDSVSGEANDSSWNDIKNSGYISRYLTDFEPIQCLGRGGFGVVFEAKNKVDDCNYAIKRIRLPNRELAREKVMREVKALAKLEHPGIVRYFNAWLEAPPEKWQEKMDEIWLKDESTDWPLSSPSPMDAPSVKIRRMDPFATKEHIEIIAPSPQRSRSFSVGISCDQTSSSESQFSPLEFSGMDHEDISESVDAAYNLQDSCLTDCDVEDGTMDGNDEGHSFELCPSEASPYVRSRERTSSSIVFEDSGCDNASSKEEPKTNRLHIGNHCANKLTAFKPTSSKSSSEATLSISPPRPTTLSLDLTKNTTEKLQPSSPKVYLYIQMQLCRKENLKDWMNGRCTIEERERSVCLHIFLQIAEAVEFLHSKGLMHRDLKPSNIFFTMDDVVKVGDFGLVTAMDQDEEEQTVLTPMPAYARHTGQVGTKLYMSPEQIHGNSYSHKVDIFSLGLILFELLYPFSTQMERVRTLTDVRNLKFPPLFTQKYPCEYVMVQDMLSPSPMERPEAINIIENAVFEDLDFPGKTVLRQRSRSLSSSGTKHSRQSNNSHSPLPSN
Text: as §1

CSK = CSK (Homo sapiens, UniProt P41240); test: Kinase profiling CSK; details: for remaining activity at 100 µM: read-out: residual kinase activity, CSK
Text: as §1

MELK = MELK (Homo sapiens, UniProt Q14680); test: Kinase profiling MELK; details: for remaining activity at 100 µM: read-out: residual kinase activity, MELK
MELK, sequence (Q14680 whole entry, species assumed): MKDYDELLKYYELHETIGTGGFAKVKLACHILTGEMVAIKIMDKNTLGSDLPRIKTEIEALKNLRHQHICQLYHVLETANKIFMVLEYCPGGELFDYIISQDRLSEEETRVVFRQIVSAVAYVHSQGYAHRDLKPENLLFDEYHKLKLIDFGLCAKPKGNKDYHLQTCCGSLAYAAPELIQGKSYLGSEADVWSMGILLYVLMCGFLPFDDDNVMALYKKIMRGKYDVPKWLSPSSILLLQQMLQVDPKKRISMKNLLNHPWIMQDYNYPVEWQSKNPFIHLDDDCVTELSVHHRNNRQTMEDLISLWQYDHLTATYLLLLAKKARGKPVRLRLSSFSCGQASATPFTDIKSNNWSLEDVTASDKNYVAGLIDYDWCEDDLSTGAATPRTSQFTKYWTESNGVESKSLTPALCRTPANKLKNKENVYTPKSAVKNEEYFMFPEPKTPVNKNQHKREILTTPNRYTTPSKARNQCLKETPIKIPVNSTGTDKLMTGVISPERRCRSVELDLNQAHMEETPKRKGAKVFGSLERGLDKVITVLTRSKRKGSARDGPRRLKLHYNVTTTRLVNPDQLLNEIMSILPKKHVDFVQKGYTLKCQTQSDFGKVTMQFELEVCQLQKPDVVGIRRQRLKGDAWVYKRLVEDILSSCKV
Text: as §1

[1] = 100 micromolar inhibitor concentration, 100 is no change

`O=C(Nc1nc2cc(O)ccc2s1)c1ccncc1` [Compound 03-11] was tested, and the “residual kinase activity, CHK1” value (CHK1; [1]) was 78, the “residual kinase activity, Aurora A” value (Aurora A; [1]) was 106 and the “residual kinase activity, TSSK1” value (TSSK1; [1]) was 97. The “residual kinase activity, MARK1” value (MARK1; [1]) was 90, the “residual kinase activity, WNK1” value (WNK1; [1]) was 88 and the “residual kinase activity, ABL” value (ABL; [1]) was 99. For the same compound, the “residual kinase activity, CDK2-Cyclin A” value (CDK2-Cyclin A; [1]) was 98, the “residual kinase activity, EIF2AK3” value (EIF2AK3; [1]) was 65 and the “residual kinase activity, CSK” value (CSK; [1]) was 94. For the same compound, the “residual kinase activity, MELK” value (MELK; [1]) was 48.

For `CC(=O)Nc1nc2cc(C)ccc2s1` [Compound 03-76], the “residual kinase activity, CHK1” value (CHK1; [1]) was 102, the “residual kinase activity, Aurora A” value (Aurora A; [1]) was 109 and the “residual kinase activity, TSSK1” value (TSSK1; [1]) was 79. The “residual kinase activity, MARK1” value (MARK1; [1]) was 94, the “residual kinase activity, WNK1” value (WNK1; [1]) was 104 and the “residual kinase activity, ABL” value (ABL; [1]) was 82. The “residual kinase activity, CDK2-Cyclin A” value (CDK2-Cyclin A; [1]) was 72, the “residual kinase activity, EIF2AK3” value (EIF2AK3; [1]) was 97 and the “residual kinase activity, CSK” value (CSK; [1]) was 101. For the same compound, the “residual kinase activity, MELK” value (MELK; [1]) was 58.

`CC(=O)Nc1nc2cc(O)ccc2s1` [Compound 01-66, N-(5-hydroxybenzo[d]thiazol-2-yl)acetamide] was tested, and the remaining activity at 100 µM (CHK1) was 75%, the remaining activity at 100 µM (Aurora A) was 87% and the remaining activity at 100 µM (TSSK1) was 65%. It also gave a remaining activity at 100 µM (MARK1) of 56%, a remaining activity at 100 µM (WNK1) of 101% and a remaining activity at 100 µM (ABL) of 29%. The remaining activity at 100 µM (CDK2-Cyclin A) was 71%, the remaining activity at 100 µM (EIF2AK3) was 59% and the remaining activity at 100 µM (CSK) was 92%. It also gave a remaining activity at 100 µM (MELK) of 17%.

Work on `CC(=O)Nc1nc2ccc(C(F)(F)F)cc2s1` [Compound 01-90] yielded a remaining activity at 100 µM (CHK1; [1]) of 97%, a remaining activity at 100 µM (Aurora A; [1]) of 81% and a remaining activity at 100 µM (TSSK1; [1]) of 90%. For the same compound, the remaining activity at 100 µM (MARK1; [1]) was 90%, the remaining activity at 100 µM (WNK1; [1]) was 100% and the remaining activity at 100 µM (ABL; [1]) was 31%. It also gave a remaining activity at 100 µM (CDK2-Cyclin A; [1]) of 22%, a remaining activity at 100 µM (EIF2AK3; [1]) of 105% and a remaining activity at 100 µM (CSK; [1]) of 61%. It also gave a remaining activity at 100 µM (MELK; [1]) of 49%.

With `CC(=O)Nc1nc2ccc(O)cc2s1` [Compound 01-71] the remaining activity at 100 µM (CHK1; [1]) was 82%, the remaining activity at 100 µM (Aurora A; [1]) was 68% and the remaining activity at 100 µM (TSSK1; [1]) was 67%. For the same compound, the remaining activity at 100 µM (MARK1; [1]) was 33%, the remaining activity at 100 µM (WNK1; [1]) was 96% and the remaining activity at 100 µM (ABL; [1]) was 17%. For the same compound, the remaining activity at 100 µM (CDK2-Cyclin A; [1]) was 30%, the remaining activity at 100 µM (EIF2AK3; [1]) was 77% and the remaining activity at 100 µM (CSK; [1]) was 78%. For the same compound, the remaining activity at 100 µM (MELK; [1]) was 24%.

`O=C(Nc1nc2ccc(O)cc2s1)c1ccccc1` [Compound 03-60] was tested, and the “residual kinase activity, CHK1” value (CHK1; [1]) was 72, the “residual kinase activity, Aurora A” value (Aurora A; [1]) was 82 and the “residual kinase activity, TSSK1” value (TSSK1; [1]) was 27. For the same compound, the “residual kinase activity, MARK1” value (MARK1; [1]) was 96, the “residual kinase activity, WNK1” value (WNK1; [1]) was 108 and the “residual kinase activity, ABL” value (ABL; [1]) was 54. The “residual kinase activity, CDK2-Cyclin A” value (CDK2-Cyclin A; [1]) was 78, the “residual kinase activity, EIF2AK3” value (EIF2AK3; [1]) was 45 and the “residual kinase activity, CSK” value (CSK; [1]) was 69. The “residual kinase activity, MELK” value (MELK; [1]) was 18.

With `CC(=O)Nc1nc2ccc(C#N)cc2s1` [Compound 01-94] the remaining activity at 100 µM (CHK1; [1]) was 96%, the remaining activity at 100 µM (Aurora A; [1]) was 61% and the remaining activity at 100 µM (TSSK1; [1]) was 55%. The remaining activity at 100 µM (MARK1; [1]) was 60%, the remaining activity at 100 µM (WNK1; [1]) was 101% and the remaining activity at 100 µM (ABL; [1]) was 31%. The remaining activity at 100 µM (CDK2-Cyclin A; [1]) was 11%, the remaining activity at 100 µM (EIF2AK3; [1]) was 78% and the remaining activity at 100 µM (CSK; [1]) was 83%. It also gave a remaining activity at 100 µM (MELK; [1]) of 34%.

Compound `COc1ccc2sc(NC(C)=O)nc2c1` [Compound 03-21] has a remaining activity at 100 µM (CHK1; [1]) of 110%, a remaining activity at 100 µM (Aurora A; [1]) of 103% and a remaining activity at 100 µM (TSSK1; [1]) of 75%. For the same compound, the remaining activity at 100 µM (MARK1; [1]) was 98%, the remaining activity at 100 µM (WNK1; [1]) was 121% and the remaining activity at 100 µM (ABL; [1]) was 111%. For the same compound, the remaining activity at 100 µM (CDK2-Cyclin A; [1]) was 93%, the remaining activity at 100 µM (EIF2AK3; [1]) was 82% and the remaining activity at 100 µM (CSK; [1]) was 104%. The remaining activity at 100 µM (MELK; [1]) was 44%.

With `O=C(Nc1nc2ccc(O)cc2s1)c1ccncc1` [Compound 08-42] the “residual kinase activity, CHK1” value (CHK1; [1]) was 70, the “residual kinase activity, Aurora A” value (Aurora A; [1]) was 103 and the “residual kinase activity, TSSK1” value (TSSK1; [1]) was 85. The “residual kinase activity, MARK1” value (MARK1; [1]) was 75, the “residual kinase activity, WNK1” value (WNK1; [1]) was 89 and the “residual kinase activity, ABL” value (ABL; [1]) was 76. The “residual kinase activity, CDK2-Cyclin A” value (CDK2-Cyclin A; [1]) was 72, the “residual kinase activity, EIF2AK3” value (EIF2AK3; [1]) was 59 and the “residual kinase activity, CSK” value (CSK; [1]) was 89. For the same compound, the “residual kinase activity, MELK” value (MELK; [1]) was 22.

Source: patent US10231954B2, “Neurodegenerative therapies” (LYTIX BIOPHARMA AS, priority 2014, dated 2019)
